For 28 molecules, IC50 results are on record in patent US12084420B2, “Indoline compounds for inhibiting KIF18A” (Volastra Therapeutics, Inc., priority 2021, dated 2024).

Sequence of hKIF18A (1-374) (Q8NI77 whole entry, looked up): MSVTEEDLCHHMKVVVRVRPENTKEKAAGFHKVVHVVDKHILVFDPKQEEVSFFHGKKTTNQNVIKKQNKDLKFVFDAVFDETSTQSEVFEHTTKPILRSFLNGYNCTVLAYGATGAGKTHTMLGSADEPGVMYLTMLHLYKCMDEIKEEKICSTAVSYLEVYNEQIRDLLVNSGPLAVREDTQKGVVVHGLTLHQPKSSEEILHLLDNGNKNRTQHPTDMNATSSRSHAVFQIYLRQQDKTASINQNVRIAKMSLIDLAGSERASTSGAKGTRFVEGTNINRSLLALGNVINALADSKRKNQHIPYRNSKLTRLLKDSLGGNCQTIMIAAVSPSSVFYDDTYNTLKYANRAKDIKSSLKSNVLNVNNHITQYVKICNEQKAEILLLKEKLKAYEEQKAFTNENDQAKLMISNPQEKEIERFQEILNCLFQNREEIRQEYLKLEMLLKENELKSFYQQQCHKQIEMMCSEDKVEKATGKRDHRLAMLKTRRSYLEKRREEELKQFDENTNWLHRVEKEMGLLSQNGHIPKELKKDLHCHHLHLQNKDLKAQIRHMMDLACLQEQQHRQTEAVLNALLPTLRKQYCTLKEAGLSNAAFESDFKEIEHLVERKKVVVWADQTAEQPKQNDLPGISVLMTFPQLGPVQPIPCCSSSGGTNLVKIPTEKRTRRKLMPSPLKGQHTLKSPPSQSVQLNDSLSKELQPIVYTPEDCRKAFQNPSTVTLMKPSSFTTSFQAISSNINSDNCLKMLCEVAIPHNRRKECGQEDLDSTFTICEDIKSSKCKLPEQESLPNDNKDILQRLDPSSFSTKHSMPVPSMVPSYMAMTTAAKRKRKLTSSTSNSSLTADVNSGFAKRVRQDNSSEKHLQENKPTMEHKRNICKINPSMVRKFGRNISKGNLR
Sequence of hKIF18A (1-374) (Q2XVP4 whole entry partner, looked up): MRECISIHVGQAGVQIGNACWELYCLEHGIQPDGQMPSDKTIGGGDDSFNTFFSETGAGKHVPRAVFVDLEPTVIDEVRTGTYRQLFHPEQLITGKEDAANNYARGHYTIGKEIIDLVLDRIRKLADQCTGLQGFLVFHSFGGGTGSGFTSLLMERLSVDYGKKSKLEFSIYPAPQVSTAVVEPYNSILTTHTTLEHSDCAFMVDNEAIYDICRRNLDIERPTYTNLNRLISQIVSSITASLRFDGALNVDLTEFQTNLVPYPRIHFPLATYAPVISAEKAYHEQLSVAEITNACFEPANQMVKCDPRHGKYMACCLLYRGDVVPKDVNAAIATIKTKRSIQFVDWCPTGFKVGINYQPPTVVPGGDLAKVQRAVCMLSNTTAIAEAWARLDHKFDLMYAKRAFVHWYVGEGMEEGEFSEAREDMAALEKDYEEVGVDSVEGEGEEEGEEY
Sequence of hKIF18A (1-374) (P02554 whole entry partner, looked up): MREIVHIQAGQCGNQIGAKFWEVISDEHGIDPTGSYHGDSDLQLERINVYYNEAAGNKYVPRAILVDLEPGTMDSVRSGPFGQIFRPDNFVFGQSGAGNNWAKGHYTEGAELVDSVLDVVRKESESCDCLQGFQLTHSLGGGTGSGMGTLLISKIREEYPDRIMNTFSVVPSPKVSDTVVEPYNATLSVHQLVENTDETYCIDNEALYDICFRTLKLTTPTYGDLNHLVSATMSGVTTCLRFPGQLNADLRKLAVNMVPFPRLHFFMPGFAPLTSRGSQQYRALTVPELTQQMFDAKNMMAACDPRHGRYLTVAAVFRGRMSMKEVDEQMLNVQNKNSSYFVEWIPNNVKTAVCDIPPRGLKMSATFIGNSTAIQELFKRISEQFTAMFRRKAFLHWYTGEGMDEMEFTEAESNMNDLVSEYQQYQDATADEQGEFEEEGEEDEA

One test concerns the target hKIF18A (1-374) (Homo sapiens (Human), UniProt Q8NI77). Put plainly: Inhibition of KIF18A microtubule-dependent ATPase activity (ADP-Glo).
Conditions: not given
Molecule `COC1CC(NS(=O)(=O)c2cccc(C(=O)N3CC4(CCC5(CC5)CC4)c4cc(NS(C)(=O)=O)ccc43)c2)C1` (stereo not shown) [Compound 222, N-(3-methoxycyclobutyl)-3-(5″- (methylsulfonamido)dispiro[cyclopropane-1,1′-cyclohexane-4′,3″-indoline]-1″-carbonyl)benzenesulfonamide] showed an IC50 of 100 nM.

Still in this test, the particulars now being: KIF18A microtubule-dependent ATPase activity, biochemical assay.
`CC1(NS(=O)(=O)c2cccc(C(=O)N3CC4(CCC5(CC5)CC4)c4cc(NS(C)(=O)=O)ccc43)c2)COC1` [Compound 206, N-(3-methyloxetan-3-yl)-3-(5″- (methylsulfonamido)dispiro[cyclopropane-1,1′-cyclohexane-4′,3″-indoline]-1″-carbonyl)benzenesulfonamide]: the IC50 turned out to be 27 nM.
`CCC(CO)NS(=O)(=O)c1cccc(C(=O)N2CC3(CCC4(CC4)CC3)c3cc(NS(C)(=O)=O)ccc32)c1` (stereo not shown) [Compound 208, N-(1-hydroxybutan-2-yl)-3-(5″- (methylsulfonamido)dispiro[cyclopropane-1,1′-cyclohexane-4′,3″-indoline]-1″-carbonyl)benzenesulfonamide]: the IC50 is 64 nM.
The same measure, in the same setting: as for `CC(C)C(C)NS(=O)(=O)c1cccc(C(=O)N2CC3(CCC4(CC4)CC3)c3cc(NS(C)(=O)=O)ccc32)c1` (stereo not shown) [Compound 210, N-(3-methylbutan-2-yl)-3-(5″- (methylsulfonamido)dispiro[cyclopropane-1,1′-cyclohexane-4′,3″-indoline]-1″-carbonyl)benzenesulfonamide], the figure is 16 nM; as for `CS(=O)(=O)Nc1ccc2c(c1)C1(CCC3(CC3)CC1)CN2C(=O)c1cccc(S(=O)(=O)NC2CC2)c1` [Compound 212, N-cyclopropyl-3-(5″- (methylsulfonamido)dispiro[cyclopropane-1,1′-cyclohexane-4′,3″-indoline]-1″-carbonyl)benzenesulfonamide], 12 nM; as for `CS(=O)(=O)Nc1ccc2c(c1)C1(CCC3(CC3)CC1)CN2C(=O)c1cccc(S(=O)(=O)NC(CO)C2CC2)c1` (stereo not shown) [Compound 214, N-(1-cyclopropyl-2-hydroxyethyl)-3-(5″- (methylsulfonamido)dispiro[cyclopropane-1,1′-cyclohexane-4′,3″-indoline]-1″-carbonyl)benzenesulfonamide], 80 nM.
Same read-out and setting: under `CC1(NS(=O)(=O)c2cccc(C(=O)N3CC4(CCC5(CC5)CC4)c4cc(NS(C)(=O)=O)ccc43)c2)CC1` [Compound 216, N-(1-methylcyclopropyl)-3-(5″- (methylsulfonamido)dispiro[cyclopropane-1,1′-cyclohexane-4′,3″-indoline]-1″-carbonyl)benzenesulfonamide] stands 9.3 nM; under `CS(=O)(=O)Nc1ccc2c(c1)C1(CCC3(CC3)CC1)CN2C(=O)c1cccc(S(=O)(=O)NC2CC(O)C2)c1` (stereo not shown) [Compound 218, N-(3-hydroxycyclobutyl)-3-(5″- (methylsulfonamido)dispiro[cyclopropane-1,1′-cyclohexane-4′,3″-indoline]-1″-carbonyl)benzenesulfonamide], 100 nM; under `CC(C)(CO)NS(=O)(=O)c1cccc(C(=O)N2CC3(CCC4(CC4)CC3)c3cc(NS(C)(=O)=O)ccc32)c1` [Compound 220, N-(1-hydroxy-2-methylpropan-2-yl)-3-(5″- (methylsulfonamido)dispiro[cyclopropane-1,1′-cyclohexane-4′,3″-indoline]-1″-carbonyl)benzenesulfonamide], 25 nM.
The molecule `CC1(NS(=O)(=O)c2cccc(C(=O)N3CC4(CCC5(CC5)CC4)c4cc(NS(C)(=O)=O)ccc43)c2)CC(F)(F)C1` [Compound 224, N-(3,3-difluoro-1-methylcyclobutyl)-3-(5″- (methylsulfonamido)dispiro[cyclopropane-1,1′-cyclohexane-4′,3″-indoline]-1″-carbonyl)benzenesulfonamide] had an IC50 of 23 nM.
On to `CS(=O)(=O)Nc1ccc2c(c1)C1(CCC3(CC3)CC1)CN2C(=O)c1cccc(S(=O)(=O)NC2CC23CC3)c1` (stereo not shown) [Compound 225, 3-(5″-(methylsulfonamido)dispiro [cyclopropane-1,1′-cyclohexane-4′,3″- indoline]-1″-carbonyl)-N-(spiro[2.2]pentan-1-yl)benzenesulfonamide], for which the IC50 came out at 7.5 nM.
Molecule `CC1(NS(=O)(=O)c2cccc(C(=O)N3CC4(CCC5(CC5)CC4)c4cc(NS(C)(=O)=O)ccc43)c2)CSC1` [Compound 226, 3-(5″- (methylsulfonamido)dispiro[cyclopropane-1,1′-cyclohexane-4′,3″-indoline]-1″-carbonyl)-N-(3-methylthietan-3-yl)benzenesulfonamide] showed an IC50 of 13 nM.
The same measure, in the same setting: under `O=C(c1cccc(S(=O)(=O)NC2CCC2)c1)N1CC2(CCC3(CC3)CC2)c2cc(NS(=O)(=O)CCO)ccc21` [Compound 227, N-cyclobutyl-3-(5″-((2-hydroxyethyl)sulfonamido)dispiro[cyclopropane-1,1′-cyclohexane-4′,3″- indoline]-1″- carbonyl)benzenesulfonamide] stands 7.2 nM.
Same read-out and setting: as for `O=C(c1cccc(S(=O)(=O)N2CC3(CCC3)C2)c1)N1CC2(CCC3(CC3)CC2)c2cc(NS(=O)(=O)CCO)ccc21` [Compound 228, N-(1″-(3-((2-azaspiro[3.3]heptan-2-yl)sulfonyl)benzoyl)dispiro[cyclopropane-1,1′-cyclohexane-4′,3″-indolin]-5″- yl)-2-hydroxyethane-1-sulfonamide], the figure is 4.6 nM.
On the same count and under the same terms, as for `O=C(c1cccc(S(=O)(=O)NC2CC(F)(F)C2)c1)N1CC2(CCC3(CC3)CC2)c2cc(NS(=O)(=O)CCO)ccc21` [Compound 230, N-(3,3-difluorocyclobutyl)-3-(5″-((2-hydroxyethyl)sulfonamido)dispiro [cyclopropane-1,1′-cyclohexane-4′,3″- indoline]-1″- carbonyl)benzenesulfonamide], the figure is 14 nM; as for `C=CCC1CC1NS(=O)(=O)c1cccc(C(=O)N2CC3(CCC4(CC4)CC3)c3cc(NS(C)(=O)=O)ccc32)c1` (stereo not shown) [Compound 235, N-(2-allylcyclopropyl)-3-(5″- (methylsulfonamido)dispiro[cyclopropane-1,1′-cyclohexane-4′,3″-indoline]-1″-carbonyl)benzenesulfonamide], 22 nM.
Consider `CS(=O)(=O)Nc1ccc2c(c1)C1(CCCCC1)CN2C(=O)c1cccc(S(=O)(=O)N2CCCCC2)c1` [Compound 240, N-(1′-(3-(piperidin-1-ylsulfonyl)benzoyl)spiro[cyclohexane-1,3′-indolin]-5′-yl)methanesulfonamide], for which 40 nM corresponded to half-maximal inhibition (IC50).
Same read-out and setting: as for `CS(=O)(=O)Nc1ccc2c(c1)C1(CCCCC1)CN2C(=O)c1cccc(S(=O)(=O)N2CCCC2)c1` [Compound 241, N-(1′-(3-(pyrrolidin-1-ylsulfonyl)benzoyl)spiro[cyclohexane-1,3′-indolin]-5′-yl)methanesulfonamide], the figure is 180 nM.
The same measure, in the same setting: as for `CC(C)(C)NS(=O)(=O)c1cccc(C(=O)N2CC3(CC=CC3)c3cc(NS(C)(=O)=O)ccc32)c1` [Compound 243, N-(tert-butyl)-3-(5′-(methylsulfonamido)spiro[cyclopentane-1,3′-indolin]-3-en-1′-carbonyl)benzenesulfonamide], the figure is 140 nM; as for `CC1(C)CCN1S(=O)(=O)c1cccc(C(=O)N2CC3(CCC4(CC4)CC3)c3cc(NS(C)(=O)=O)ccc32)c1` [Compound 245, N-(1″-(3-((2,2-dimethylazetidin-1-yl)sulfonyl)benzoyl)dispiro[cyclopropane-1,1′-cyclohexane-4′,3″-indolin]-5″- yl)methanesulfonamide], 34 nM.
The same measure, in the same setting: as for `CC1CCN(S(=O)(=O)c2cccc(C(=O)N3CC4(CCC5(CC5)CC4)c4cc(NS(C)(=O)=O)ccc43)c2)C1` (stereo not shown) [Compound 249, N-(1″-(3-((3-methylpyrrolidin-1-yl)sulfonyl)benzoyl)dispiro[cyclopropane-1,1′-cyclohexane-4′,3″-indolin]-5″- yl)methanesulfonamide], the figure is 9 nM.
For `CS(=O)(=O)c1ccc2c(c1)C1(CCCCC1)CN2C(=O)c1cccc(S(=O)(=O)N2CCCCC2)c1` [Compound 250, (5′-(methylsulfonyl)spiro[cyclohexane-1,3′-indolin]-1′-yl)(3-(piperidin-1-ylsulfonyl)phenyl)methanone], the IC50 is 670 nM.
The molecule `CC1CCC2(C1)CN(C(=O)c1cccc(S(=O)(=O)NC(C)(C)C)c1)c1ccc(NS(C)(=O)=O)cc12` (stereo not shown) [Compound 252, N-(tert-butyl)-3-(3-methyl-5′-(methylsulfonamido)spiro[cyclopentane-1,3′-indoline]-1′-carbonyl)benzenesulfonamide] registered an IC50 of 34 nM.
The same measure, in the same setting: as for `CC1(O)CN(S(=O)(=O)c2cccc(C(=O)N3CC4(CCC5(CC5)CC4)c4cc(NS(C)(=O)=O)ccc43)c2)C1` [Compound 255, N-(1″-(3-((3-hydroxy-3-methylazetidin-1-yl)sulfonyl)benzoyl)dispiro[cyclopropane-1,1′-cyclohexane-4′,3″-indolin]-5″- yl)methanesulfonamide], the figure is 63 nM; as for `C=C1CN(S(=O)(=O)c2cccc(C(=O)N3CC4(CCC5(CC5)CC4)c4cc(NS(C)(=O)=O)ccc43)c2)C1` [Compound 258], 14 nM; as for `CC1CN(S(=O)(=O)c2cccc(C(=O)N3CC4(CCC5(CC5)CC4)c4cc(NS(C)(=O)=O)ccc43)c2)C1` [Compound 260, N-(1″-(3-((3-methylazetidin-1-yl)sulfonyl)benzoyl)dispiro[cyclopropane-1,1′-cyclohexane-4′,3″-indolin]-5″- yl)methanesulfonamide], 12 nM.
In the case of `CCS(=O)(=O)Nc1ccc2c(c1)C1(CCC3(CC3)CC1)CN2C(=O)c1cccc(S(=O)(=O)NC2CCC2)c1` [Compound 261, N-cyclobutyl-3-(5″- (ethylsulfonamido)dispiro[cyclopropane-1,1′-cyclohexane-4′,3″-indoline]-1″- carbonyl)benzenesulfonamide], the IC50 was found to be 9.3 nM.
`CS(=O)(=O)Nc1ccc2c(c1)C1(CCC3(CC3)CC1)CN2C(=O)c1cccc(S(=O)(=O)NC2(C#N)CC2)c1` [Compound 264, N-(1-cyanocyclopropyl)-3-(5″- (methylsulfonamido)dispiro[cyclopropane-1,1′-cyclohexane-4′,3″-indoline]-1″-carbonyl)benzenesulfonamide] came in with an IC50 of 35 nM.

As a reminder, the IC50 is the midpoint of a concentration-inhibition curve.
